Common to all, as to test: growth of human tumour cells (NCI), 48 h
Experiment [1] has as its system KM12 colon.
The subject of experiment [2] is U251 CNS.
In experiment [3] the test system is M14 melanoma.
In experiment [4] the test system is SN12C renal.
In experiment [5] the test system is OVCAR-8 ovarian.
In experiment [6] the test system is EKVX NSCLC.
Experiment [7] relates to MOLT-4 leukemia.
The test system of experiment [8] is BT-549 breast.
The test system of experiment [9] is T-47D breast.
Experiment [10] relates to HS 578T breast.

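48-hour exposure; five concentrations; linearly interpolated endpoints. The concentration for 50% growth inhibition is given as GI50. TGI: total growth inhibition.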

For `CC(=O)OCC(=O)[C@@]1(O)CC[C@H]2[C@@H]3CCC4=CC(=O)[C@H](C)C[C@]4(C)[C@H]3[C@@H](O)C[C@@]21C`, the TGI in experiment [1], in [2], in experiment [3], in experiment [4], in experiment [5] and in [6] was greater than 100 µM each time.

As for `COc1cc(/C=C/C(=O)c2sc(-n3nc(-c4ccccc4)cc3-c3ccccc3)nc2C)ccc1O`, the TGI in [1], in [2], in experiment [4], in experiment [7], in experiment [5] and in experiment [6] was greater than 100 µM in each case.

Regarding `COc1ccccc1C1CC(=O)CC(c2ccccc2OC)C12C(=O)NC(=S)NC2=O` (stereo not drawn), the TGI in [1] was greater than 100 µM; in experiment [2] it was greater than 100 µM; in experiment [8], greater than 100 µM; in [3], greater than 100 µM; in [4] it was greater than 100 µM; in experiment [7], 95.8 µM. In addition, the TGI in [5], in experiment [9] and in experiment [6] was greater than 100 µM in each case.

`COc1ccc(/C=C2/C(C)=NN(c3cccc(Cl)c3)/C2=N/c2nc3ccccc3s2)cc1`: the TGI in experiment [1] was greater than 100 µM; in experiment [2] it was 47 µM; in experiment [10] it was 66.1 µM; in [3], 60.8 µM; in experiment [7], 63.8 µM; in experiment [5], 49.3 µM. Besides, the TGI in experiment [9] was greater than 100 µM; in experiment [6], 83.1 µM.

Turning to `CCc1nnc(CC)n1NCCCC(=O)O`, the TGI in experiment [1], in [2], in experiment [8], in experiment [3], in experiment [4] and in [7] was greater than 100 µM each time. Further, the TGI in experiment [5] and in experiment [6] was greater than 100 µM each time.

Regarding `C/C(=N\N)C(CN(C)C)C(c1ccccc1)c1c(O)c2ccccc2oc1=O` (stereo not drawn), the TGI in experiment [1], in experiment [2], in [10], in [8], in experiment [3] and in [4] was greater than 100 µM in each case. Moreover, the TGI in [7], in experiment [5] and in experiment [6] was greater than 100 µM in each case.

With `COC(=O)c1[nH]c(=S)[nH]c(=O)c1-c1ccc(Cl)cc1`, the TGI in [1], in [2], in experiment [3], in [4], in experiment [7] and in [5] was greater than 50 µM throughout. In experiment [6], this molecule displayed a TGI greater than 50 µM.

Take `COc1cc(S(=O)(=O)Nc2ccc(-c3csc(N4C(=O)CSC4c4cccs4)n3)cc2)ccc1Cl` (stereo not drawn): the TGI was 48.7 µM in experiment [1]; 78.3 µM in [10]; 70.5 µM in [8]; greater than 100 µM in [3]; 73.7 µM in [4]; greater than 100 µM in [7]. Further, the TGI in [5] and in experiment [6] was greater than 100 µM throughout.

Consider `CCOC(=O)NC(C(F)(F)F)(C(F)(F)F)P(=O)(OC(C)C)OC(C)C`, for which the TGI in experiment [1], in [2], in experiment [10], in experiment [8], in experiment [4] and in [7] was greater than 100 µM each time. The TGI in experiment [5] and in experiment [6] was greater than 100 µM each time.

In the case of `COC(=O)N1C[C@@]2(C=CC3(CC2)OCCO3)c2ccccc21`, the TGI in [1], in experiment [2], in experiment [3], in experiment [4], in [7] and in experiment [5] was greater than 100 µM throughout. For the same molecule, the TGI in experiment [9] and in [6] was greater than 100 µM each time.

Take `NC(=O)OCC(COc1ccc(Cl)cc1)OC(=O)c1ccccc1Cl` (stereo not drawn): the TGI came to 45.5 µM in [1]; 27.6 µM in [2]; 32.8 µM in experiment [3]; 34 µM in [4]; 56.6 µM in experiment [7]; 54.3 µM in [5]. In experiment [6], the TGI came out at 70 µM.

With `Cn1nc(Cc2ccc(Cl)cc2)n(N)c1=O`, the TGI in [1], in experiment [2], in [8], in [4], in experiment [7] and in experiment [5] was greater than 100 µM in each case. Besides, the TGI in experiment [9] is greater than 100 µM.

As to `COc1cc(NC(C)=O)c2[nH]c3c(C)cc(NC(C)=O)c(C)c3c2c1`, the TGI in experiment [1], in experiment [2], in [3], in [4], in experiment [7] and in [5] was greater than 100 µM in each case. Also, the TGI in experiment [6] is greater than 100 µM.

For the molecule `NS(=O)(=O)c1cc2c(cc1Cl)NC(C(=O)c1cc(=O)c3ccc(O)cc3o1)=NS2(=O)=O`, the TGI in experiment [1], in [2], in experiment [3], in [4], in experiment [7] and in experiment [5] was greater than 100 µM throughout. The TGI in [6] is greater than 100 µM.

As to `c1ccc(Nc2nnc(CSc3nc(-c4ccccc4)c(-c4ccccc4)[nH]3)s2)cc1`, the TGI came to 44.1 µM in experiment [1]; 28.1 µM in experiment [2]; 28.5 µM in experiment [3]; 35 µM in experiment [4]; 29.8 µM in experiment [7]; 53.8 µM in experiment [5]. Further, the TGI in [6] was determined as 51.5 µM.

As to `C=CCONC(=O)c1ccc(Cl)cc1`, the TGI in [1], in experiment [2], in experiment [3], in [4], in [7] and in [5] was greater than 100 µM in each case. The same molecule had a TGI in experiment [6] greater than 100 µM.

Take `O=S(=O)([O-])[O-].[Fe+2].c1ccc(/C(=N\Nc2ccccn2)c2ccccn2)cc1`: the TGI is 14.6 µM in experiment [1]; 4.66 µM in experiment [2]; 4.89 µM in experiment [3]; 9.69 µM in [4]; 6.13 µM in experiment [7]; 10.8 µM in experiment [5]. In experiment [6], this molecule yielded a TGI of 4.72 µM.

Take `CCOC(=O)CSc1ccnc(=O)[nH]1`: the TGI in experiment [1], in [2], in [3], in experiment [4], in [7] and in experiment [5] was greater than 100 µM throughout. In experiment [6], this molecule yielded a TGI greater than 100 µM.

Regarding `O=c1[nH]c(=O)n(C2OC(CO)C(O)C(F)C2O)cc1F` (stereo not drawn), the TGI was greater than 100 µM in [2]; greater than 100 µM in experiment [10]; greater than 100 µM in [8]; greater than 100 µM in experiment [3]; greater than 100 µM in [4]; 62 µM in experiment [7]. In addition, the TGI in experiment [5] and in experiment [9] was greater than 100 µM throughout.

Turning to `COc1cc2c(/C=C3/C(=O)Nc4ccc(Cl)cc43)c(Cl)n(Cc3ccccc3)c2cc1C`, the TGI is 5.64 µM in experiment [1]; greater than 100 µM in [10]; 22.6 µM in experiment [8]; 18.2 µM in [3]; 5.24 µM in [4]; 5.02 µM in experiment [7]. This molecule also displayed a TGI in experiment [9] of 13.9 µM.

Consider `CN(C(=O)C12C3C4C1C1C2C3C41I)C(C)(C)C` (stereo not drawn), for which the TGI in experiment [1] was greater than 100 µM; in experiment [2], greater than 100 µM; in [3] it was greater than 100 µM; in experiment [4] it was greater than 100 µM; in experiment [7] it was greater than 47.3 µM; in experiment [5] it was greater than 100 µM. Further, in experiment [6], the TGI was greater than 100 µM.

Consider `COc1cc(/C=C\c2ccccn2)cc(OC)c1OC`, for which the TGI in experiment [1], in experiment [2], in experiment [3], in experiment [4], in [7] and in experiment [5] was greater than 100 µM throughout. The molecule also yielded a TGI in experiment [6] greater than 100 µM.

Regarding `CC#COP(=O)(OCC)OCC`, the TGI in experiment [1], in experiment [2], in experiment [3], in experiment [4], in experiment [7] and in experiment [5] was greater than 100 µM throughout. For the same molecule, the TGI in [6] is greater than 100 µM.

In the case of `Cn1c(O)c(C(=O)Nc2cccs2)c(=O)[nH]c1=S`, the TGI in [1] came to 33.4 µM; in experiment [2], 48.3 µM; in [3], 64.3 µM; in experiment [4] it was 74.6 µM; in experiment [7], 61.7 µM; in experiment [5] it was 66.2 µM.

For `COc1ccc(-c2ccc(-c3ccc(C(=N)N)nc3)s2)cc1`, the GI50 in experiment [1] was 1810 nM; in [3], 1800 nM; in experiment [4], 1830 nM; in [5] it was 2120 nM; in experiment [6], 1700 nM. In addition, the TGI was 3.3 µM in experiment [1]; 3.35 µM in experiment [3]; 3.68 µM in [4]; 4.87 µM in experiment [5]; 3.14 µM in [6].

In the case of `NC(=S)NNC(=O)/C(=C/c1ccc(/C=C(\NC(=O)c2ccccc2)C(=O)NNC(N)=S)cc1)NC(=O)c1ccccc1`, the TGI was greater than 100 µM in experiment [1]; greater than 100 µM in [2]; greater than 100 µM in [3]; greater than 100 µM in [4]; greater than 50.8 µM in experiment [7]; greater than 100 µM in experiment [5]. Besides, the TGI in experiment [6] was greater than 100 µM.

As to `CC(C)=CCCC1(C)C=Cc2c(c(C)cc3c2[nH]c2cc(O)ccc23)O1` (stereo not drawn), the TGI in [1], in experiment [2], in experiment [3], in experiment [4], in [7] and in experiment [5] was greater than 25 µM in each case.

Turning to `CCCCCCn1c(SCC)c2ccccc2c1-c1nc(F)nc(F)n1`, the TGI in [1], in experiment [2], in experiment [3], in experiment [4], in experiment [7] and in [5] was greater than 100 µM throughout. In experiment [6], this molecule gave a TGI greater than 100 µM.

Turning to `O=C(NO)c1ccc([N+](=O)[O-])cc1`, the TGI in [1], in experiment [2], in [3], in experiment [4], in experiment [7] and in [5] was greater than 100 µM each time. Moreover, in experiment [6], the TGI is greater than 100 µM.

Consider `CCOC(=O)/C(O)=C(/C=N\C(=S)Nc1ccccc1Cl)C(=O)OCC`, for which the TGI in experiment [1], in [2], in experiment [10], in experiment [3], in experiment [4] and in experiment [7] was greater than 100 µM throughout. Besides, the TGI in experiment [5], in experiment [9] and in experiment [6] was greater than 100 µM in each case.

As for `O=C(O)C1CC2C3CCC2C1C3=O` (stereo not drawn), the TGI in experiment [1], in experiment [2], in experiment [10], in [3], in experiment [4] and in [7] was greater than 100 µM throughout. For the same molecule, the TGI in experiment [5], in [9] and in experiment [6] was greater than 100 µM throughout.

As for `CC1CC2OC(=O)C3CC(O)CC(=C23)[C@@]12C[C@@H](c1ccoc1)OC2=O` (stereo partly drawn), the TGI in [1], in experiment [2], in [3], in experiment [4], in experiment [7] and in [5] was greater than 100 µM in each case. The TGI in experiment [6] is greater than 100 µM.

As to `NCCCNCCCNCCCN`, the TGI in experiment [1] is greater than 100 µM; in experiment [2] it was greater than 100 µM; in experiment [8] it was greater than 100 µM; in experiment [3], greater than 100 µM; in experiment [4], greater than 100 µM; in [7], 42.4 µM. For the same molecule, the TGI in experiment [5], in [9] and in experiment [6] was greater than 100 µM each time.

`CN(C)c1ccc(-c2c(C#N)c(N)[nH]c(=S)c2C#N)cc1`: the TGI in experiment [2] is greater than 100 µM; in experiment [10], 35.7 µM; in experiment [8], greater than 100 µM; in [3], greater than 100 µM; in experiment [4], greater than 100 µM; in experiment [5], greater than 100 µM. In addition, the TGI in experiment [6] is greater than 100 µM.
